Assay results from patent US4962112A, “7-(2-methyl-4-aminopyrrolidinyl)naphthryidine and quinoline compounds” (Abbott Laboratories, priority 1988, dated 1990).
In brackets after ≈: the same amount, converted by molar mass.

Tests used:
[1] = system: S. agalactiae; test: In vitro antibacterial activity, agar dilution MIC; format: cell-based; conditions: Streptococcus agalactiae, 18 h; STR[…] 508 (Table 2)
[2] = system: S. pyogenes; test: In vitro antibacterial activity, agar dilution MIC; format: cell-based; conditions: Streptococcus pyogenes, 18 h
[3] = system: K. pneumoniae; test: In vitro antibacterial activity, agar dilution MIC; format: cell-based, Klebsiella pneumoniae; conditions: ATCC8045, 18 h; KLEBSIELLA PNEUMONIAE ATCC 8045; read-out: MIC
[4] = system: P. aeruginosa; test: In vitro antibacterial activity, agar dilution MIC; format: cell-based; conditions: Pseudomonas aeruginosa, 18 h
[5] = system: E. coli; test: In vitro antibacterial activity, agar dilution MIC; format: cell-based; conditions: Escherichia coli, 18 h
Experimental: (§1) The in vitro antibacterial activity of the test compound was determined by conventional agar dilution procedures. The organisms were grown overnight in brain-heart infusion (BHI) broth (Difco 0037-01-6) at 36° C. Twofold dilutions of the stock solution ([…]) of the test compound were made in BHI agar obtain a test concentration ranging from […]. The plate was inoculated with approximately 10^4 organisms. It was then incubated at 36° C. for 18 h. the minimal inhibitory concentration was the lowest concentration of the test compound that yielded no visible growth on the plate.

[6] = system: EN[…]; test: In vitro antibacterial activity, agar dilution MIC; format: cell-based; conditions: Enterococcus faecium, ATCC8043, 18 h; EN[…] ATCC 8043
Experimental: as §1

[7] = system: M[…]; test: In vitro antibacterial activity, agar dilution MIC; format: cell-based; conditions: Micrococcus luteus
Experimental: as §1

[8] = system: S. aureus; test: In vitro antibacterial activity, agar dilution MIC; format: cell-based; conditions: Staphylococcus aureus, 18 h
Experimental: as §1

[9] = system: STAPHYLOCOCCUS EPIDERMIDIS; test: In vitro antibacterial activity, agar dilution MIC; format: cell-based; conditions: 18 h; STAPHYLOCOCCUS EPIDERMIDIS 3519
[10] = system: STREPTOCOCCUS BOVIS; test: In vitro antibacterial activity, agar dilution MIC; format: cell-based; conditions: Streptococcus equinus, 18 h; STREPTOCOCCUS BOVIS A5196
[11] = system: PROVIDENCIA STUARTII; test: In vitro antibacterial activity, agar dilution MIC; format: cell-based; conditions: 18 h
[12] = system: PSEUDOMONAS CEPACIA; test: In vitro antibacterial activity, agar dilution MIC; format: cell-based; conditions: Burkholderia cepacia, 18 h; PSEUDOMONAS CEPACIA 296I
[13] = system: ACINETOBACTER SP; test: In vitro antibacterial activity, agar dilution MIC; format: cell-based; conditions: 18 h; ACINETOBACTER SP CMX 669
[14] = Aqueous solubility in Ringer's buffer at pH 7.5 (HPLC); format: physicochemical; conditions: at pH 7.5 in Ringer's buffer
Experimental: A known excess weight of the compound was shaken overnight with a known volume of Ringer's buffer (bicarbonate buffer containing sodium, potassium, calcium and magnesium ions, initially adjusted to pH 7.5). The contents were filtered, and the clear filtrate was analyzed after appropriate dilution using HPLC (UV absorbance detection).

[15] = Oral pharmacokinetics, blood level by disk agar diffusion bioassay; format: in vivo, Mice; conditions: mice, oral 100 mg/kg
Experimental: Mice were administered the quantity of compound indicated orally, as a single dose. At the specified time intervals, blood was collected from groups of five mice. All samples were assayed by a disk agar diffusion bioassay procedure. Bacillus subtilis 6633 or Klebsiella pneumoniae 10032 were used as the assay organisms, and seek agar medium No. 1 (BBL Microbiology Systems; Cockeysville, MD) was the growth medium. The plates were incubated at 32° C for 18 h and read with an image analyzer (Optomax Inc.).

Q: With `NC1CCN(c2cc3c(cc2F)c(=O)c(C(=O)O)cn3-c2ccc(F)cc2F)C1` (stereo not drawn) [Example B, 7-(3-Amino-pyrrolidin-1-yl)-1-(2,4-difluorophenyl)-1,4-dihydro-6-fluoro--oxo-quinoline-3-carboxylic acid, reference compound] as the compound, how does the MIC [1] read?
A: The MIC was 0.2 µg/mL (≈ 0.496 µM).

Q: What about the MIC ([2]; STREPTOCOCCUS PYOGENES 930 CONST) of the same compound?
A: Its MIC is 0.1 µg/mL (≈ 0.248 µM).

Q: What about the MIC ([2]; STREPTOCOCCUS PYOGENES EE561) of the same compound?
A: The MIC was 0.2 µg/mL (≈ 0.496 µM).

Q: And the MIC [3]?
A: Its MIC is 0.01 µg/mL (≈ 0.0248 µM).

Q: What about the MIC ([4]; PSEUDOMONAS AERUGINOSA A5007) of the same compound?
A: The MIC was 0.2 µg/mL (≈ 0.496 µM).

Q: What about the MIC ([4]; PSEUDOMONAS AERUGINOSA BMH10) of the same compound?
A: The MIC was 0.1 µg/mL (≈ 0.248 µM).

Q: What about the MIC ([4]; PSEUDOMONAS AERUGINOSA K799/61) of the same compound?
A: The MIC was 0.05 µg/mL (≈ 0.124 µM).

Q: And the MIC ([4]; PSEUDOMONAS AERUGINOSA K799/WT)?
A: The MIC was 0.2 µg/mL (≈ 0.496 µM).

Q: And the MIC ([5]; ESCHERICHIA COLI DC-2)?
A: The MIC was 0.2 µg/mL (≈ 0.496 µM).

Q: What about the MIC ([5]; ESCHERICHIA COLI H560) of the same compound?
A: Its MIC is 0.02 µg/mL (≈ 0.0496 µM).

Q: What about the MIC ([5]; ESCHERICHIA COLI JUHL) of the same compound?
A: The MIC was 0.02 µg/mL (≈ 0.0496 µM).

Q: What about the MIC ([5]; ESCHERICHIA COLI KNK 437) of the same compound?
A: Its MIC is 0.2 µg/mL (≈ 0.496 µM).

Q: What about the MIC ([5]; ESCHERICHIA COLI SS) of the same compound?
A: The MIC was 0.002 µg/mL (≈ 0.00496 µM).

Q: What about the MIC [6] of the same compound?
A: Its MIC is 0.2 µg/mL (≈ 0.496 µM).

Q: What about the MIC ([7]; ATCC4698, 18 h, M[…] ATCC 4698) of the same compound?
A: Its MIC is 0.78 µg/mL (≈ 1.93 µM).

Q: What about the MIC ([7]; ATCC9341, 18 h, M[…] ATCC 9341) of the same compound?
A: Its MIC is 0.39 µg/mL (≈ 0.967 µM).

Q: And the MIC ([8]; STAPHYLOCOCCUS AUREUS 45)?
A: Its MIC is 0.1 µg/mL (≈ 0.248 µM).

Q: And the MIC ([8]; STAPHYLOCOCCUS AUREUS 45RAR2)?
A: The MIC was 0.1 µg/mL (≈ 0.248 µM).

Q: What about the MIC ([8]; STAPHYLOCOCCUS AUREUS A5177) of the same compound?
A: The MIC was 0.05 µg/mL (≈ 0.124 µM).

Q: And the MIC ([8]; STAPHYLOCOCCUS AUREUS CMX 503A)?
A: The MIC was 0.05 µg/mL (≈ 0.124 µM).

Q: And the MIC ([8]; STAPHYLOCOCCUS AUREUS CMX 553)?
A: The MIC was 0.05 µg/mL (≈ 0.124 µM).

Q: And the MIC ([8]; STAPHYLOCOCCUS AUREUS CMX 6868)?
A: The MIC was 0.05 µg/mL (≈ 0.124 µM).

Q: What about the MIC ([8]; ATCC6538P, STAPHYLOCOCCUS AUREUS ATCC 6538P) of the same compound?
A: Its MIC is 0.02 µg/mL (≈ 0.0496 µM).

Q: And the MIC [9]?
A: Its MIC is 0.1 µg/mL (≈ 0.248 µM).

Q: And the MIC [10]?
A: The MIC was 0.39 µg/mL (≈ 0.967 µM).

Q: What about the MIC [11] of the same compound?
A: Its MIC is 1.56 µg/mL (≈ 3.87 µM).

Q: And the MIC [12]?
A: Its MIC is 6.2 µg/mL (≈ 15.4 µM).

Q: What about the MIC [13] of the same compound?
A: Its MIC is 0.05 µg/mL (≈ 0.124 µM).

Q: And the solubility [14]?
A: The solubility was 8 µg/mL (≈ 19.8 µM).

Q: What about the “Blood Level of Compound” value ([15]; t = 1.0 h) of the same compound?
A: Its value is 500 ng/mL.

Q: And the “Blood Level of Compound” value ([15]; t = 2.0 h)?
A: Its value is 700 ng/mL.

Q: And the “Blood Level of Compound” value ([15]; t = 3.0 h)?
A: Its value is 900 ng/mL.

Q: What about the “Blood Level of Compound” value ([15]; t = 6.0 h) of the same compound?
A: Its value is 700 ng/mL.

Q: And the “Blood Level of Compound” value ([15]; t = 24.0 h)?
A: Its value is 0 ng/mL.

Q: Which solubility [14] does the source give for `CC1CC(N)CN1c1nc2c(cc1F)c(=O)c(C(=O)O)cn2-c1ccc(F)cc1F` (stereo not drawn) [Epimer of Example 2] here?
A: The solubility was 340 µg/mL (≈ 813 µM).

Q: With `CC1CC(N)CN1c1cc2c(cc1F)c(=O)c(C(=O)O)cn2-c1ccc(F)cc1F` (stereo not drawn) [Epimer of Example 6] as the compound, how does the solubility [14] read?
A: Its solubility is 182 µg/mL (≈ 436 µM).
